Laboratory results from patent publication US6284468A, “Composition and methods for determining the activity of DNA-binding proteins and of initiation of trascription” (Dnab Diagnostics, Inc., priority 2000, dated 2001).
pKi: −log10 of the molar value.

Columns and labels:
[1] = target: T1, Escherichia coli RNA polymerase (Escherichia coli, UniProt P0A8V2); test: Inhibition of initiation of transcription (de-protection of BseRI site of plasmid pDNAB-tac, ethidium bromide fluorescence); type: biochemical
T1 construct: purchased Pharmacia, Uppsala, Sweden
Protocol: In order to measure the initiation of transcription RNA polymerase was added to 0.5 μg of pDNAB-tac plasmid following the same procedure described above for the measurement of DNA-binding activity. The 4 ribonucleotide triphosphates (ATP, CTP, GTP and UTP) were then added to the reaction mixture followed by BseRI and the amount of CCC DNA left was measured after 20 minutes using ethidium bromide fluorescence as in Example 1. In the presence of the 4 ribonucleotide triphosphates the RNA polymerase starts polymerizing an RNA molecule and it moves away from the promoter sequence, thereby de-protecting the BseRI cleavage site. Cleavage at this site can take place then.
In order to measure the inhibition of the initiation of transcription, the effect of various concentrations of rifampicin on the de-protection of the BseRI site was measured. […] After 5 minutes of incubation, rifampicin and BseRI were added and the amount of uncleaved plasmid was measured after 20 minutes of incubation at 37° C. The 4 ribonucleotide triphosphates were then added and the amount of uncleaved plasmid was measured again after 20 more minutes of incubation at 37° C. […]
The relative effects of rifampicin on transcription was quantitated using the formula [formula] […]

[2] = target: T1, Escherichia coli RNA polymerase; test: Binding of RNA polymerase to the promoter sequence (protection of pDNAB-tac from BseRI cleavage, before addition of ribonucleotide triphosphates); conditions: various concentrations of rifampicin, FIG. 14
Protocol: The following experiment was conducted to measure the DNA-binding activity of RNA polymerase to its cognate nucleotide recognition sequence. The incubation buffer contained 50 mM tris HCI (pH 8), 5 mM MgCl2, 100 mM potassium glutamate, and 3, μg of pDNABtac DNA in 60 μL final volume. One to 9 units of RNA polymerase (Boehringer-Mannheim, Mannheim, Germany) were added and, after preincubation at 37° C. for 5 minutes, the reaction was cooled to 31° C.
In order to measure the inhibition of the initiation of transcription, the effect of various concentrations of rifampicin on the de-protection of the BseRI site was measured. Rifampicin is an antibiotic used in the therapy of bacterial infections (e.g. tuberculosis) and it specifically targets bacterial RNA polymerase, by inhibiting its transcription activity. […] After 5 minutes of incubation, rifampicin and BseRI were added and the amount of uncleaved plasmid was measured after 20 minutes of incubation at 37° C. The 4 ribonucleotide triphosphates were then added and the amount of uncleaved plasmid was measured again after 20 more minutes of incubation at 37° C.
The white bars represent the fluorescence units (i.e. the amount of uncleaved plasmid) before the addition of the 4 ribonucleoside triphosphates, while the hatched bars represent the fluorescence units left after addition of the 4 ribonucleotide triphosphates.

In the case of `CO[C@H]1/C=C/O[C@@]2(C)Oc3c(C)c(O)c4c(O)c(c(/C=N/N5CCN(C)CC5)c(O)c4c3C2=O)NC(=O)/C(C)=C\C=C\[C@H](C)[C@H](O)[C@@H](C)[C@@H](O)[C@@H](C)[C@H](OC(C)=O)[C@@H]1C` [rifampicin], the pKi ([1]; Michaelis-Menten fit of % inhibition, rifampicin 0.2 μM to 3.2 μM, plasmid pDNAB-tac, 37° C., read-out: apparent Ki of rifampicin (inhibition of initiation of transcription activity)) was 5.55, the “inhibition of the transcription initiation activity” value ([1]; various concentrations of rifampicin, with the 4 ribonucleotide triphosphates, FIG. 14) was “dose-dependent inhibition” and the “inhibition of the binding of RNA polymerase to the promoter sequence” value [2] was “not of the binding of RNA polymerase to the promoter sequence”.
